# Reference: patent US20070293517A1, “Derivatives Of Chemotherapeutic Agents With A Formaldehyde Releasing Moiety” (RAMOT AT TEL AVIV UNIVERSITY LTD., priority 2004, published 2007)
# Key:
# HT-29 = test: Proliferation assay, HT-29 cells; format: cell-based, human; conditions: for IC90: HT-29; for IC50: HT-29, HT-29
# LS-1034 = test: Proliferation assay, LS-1034 cells; format: cell-based, human; conditions: for IC90: LS-1034; for IC50: LS-1034, LS-1034
# Description: (§1) Cells: The human breast cancer cell lines MCF-7 and MCF-7 DX, were obtained from Dr. R. Supino (Laboratorio Oncologia, Milano, Italy); the murine 3LLD122 highly metastatic Lewis lung carcinoma cell line was obtained from Dr. Eisenbach L, the Weizmann Inst., Israel. The following cell lines were purchased from the ATCC, USA: CT-26, an N-nitroso-N-methylurethane-(NNMU) induced murine (BALB-C) colon carcinoma; Panc02, a mouse (C57/Bl) pancreas adenocarcinoma; HT-49, a human colorectal adenocarcinoma; LS1034, a multidrug resistant human colorectal carcinoma; BxPC-3 human pancreas adenocarcinoma; MES-SA and MES-SA-DXS, human uterine sarcoma sensitive and multidrug resistant, respectively; and Human prostate carcinoma 22RV1, a subclone of CWR22 cells.
# (§2) The cells were maintained in DMEM growth medium supplemented with 10% heat inactivated fetal calf serum, 2 mM glutamine, penicillin (250 units/ml) and streptomycin (125 μg/ml) in a humidified 5% CO2/air atmosphere at 37° C.
# (§3) Proliferation assay: cells at a density of 3-5×10^4 cells/ml in 200 μl medium supplemented with 10% FCS were seeded in tissue culture 96-well plates for 24 hours, and were then exposed for 72 hours to a novel derivative of a chemotherapeutic agent (in quadruplicate) as specified. After 3 days, the cells were rinsed with PBS, and fixed with ethanol (70%) for 30 minutes. The ethanol was thereafter discarded, 200 μl of 10 μg/ml HOECHST fluorescent dye (Sigma) solubilized in PBS were added and the fluorescence was measured at 390-460 nm with a FluoStar fluorometer. MTT solution (10 ml of 5 mg/ml MTT (Sigma) in PBS) was added, and the plate was incubated for 3 hours. Formazan crystals were dissolved with 140 ml of 0.04 HCl-isopropanol. The optical density of the wells was measured with a microplate reader at 540 nm.
# (§4) IC50 and IC90 values were determined from the best-fitted curve where the percentages of survival were 50 or 90 respectively.
# CT-26 = test: Proliferation assay, CT-26 cells; format: cell-based, murine
# Description: as §1, §2, §3, §4
# BXPC-3 = test: Proliferation assay, BXPC-3 cells; format: cell-based, human
# Description: as §1, §2, §3, §4
# Panc 02 = test: Proliferation assay, Panc 02 cells; format: cell-based; conditions: Mus musculus, Panc02
# Description: as §1, §2, §3, §4
# MES SA = test: Proliferation assay, MES SA cells; format: cell-based, human
# Description: as §1, §2, §3, §4
# MES SA DXS = test: Proliferation assay, MES SA DXS cells; format: cell-based, human; conditions: MES SA DXS
# Description: as §1, §2, §3, §4
# [1] = test system: sensitive and resistant uterine cancer cells (MES-SA, MES-SA DXS); test: Proliferation/survival, sensitive and resistant uterine cancer cells (both lines); format: cell-based, human
# Description: as §1, §3, §4
# [2] = test system: colon cancer cells (LS-1034 and HT-29); test: Survival of colon cancer cells (both lines); format: cell-based, human
# Procedure: Cells: The human breast cancer cell lines MCF-7 and MCF-7 DX, were obtained from Dr. R. Supino (Laboratorio Oncologia, Milano, Italy); the murine 3LLD122 highly metastatic Lewis lung carcinoma cell line was obtained from Dr. Eisenbach L, the Weizmann Inst., Israel. […]
# Proliferation assay: cells at a density of 3-5×10^4 cells/ml in 200 μl medium supplemented with 10% FCS were seeded in tissue culture 96-well plates for 24 hours, and were then exposed for 72 hours to a novel derivative of a chemotherapeutic agent (in quadruplicate) as specified. […] The ethanol was thereafter discarded, 200 μl of 10 μg/ml HOECHST fluorescent dye (Sigma) solubilized in PBS were added and the fluorescence was measured at 390-460 nm with a FluoStar fluorometer. […] The optical density of the wells was measured with a microplate reader at 540 nm.
# as §4
# various cell lines = test: Dose response studies in various cell lines, absence and presence of semicarbazide; format: cell-based; conditions: semicarbazide 0.5 mM
# Procedure: as §3
# Semicarbazide sensitive amine oxidase is a source of formaldehyde and is therefore a marker for the effect of formaldehyde. It has been shown that semicarbazide traps formaldehyde and reduces its concentration inside the cell (Nudelman et al. J. Med. Chem., 2005, 48, 1047-1054). Thus, the critical role of formaldehyde can be confirmed by reversal of formaldehyde-mediated effects by the addition of semicarbazide.
# Tables 3 and 4 below, as well as FIGS. 7A, 7B and 8A-8D present the dose response studies performed with various cell lines in the absence and presence of semicarbazide, the formaldehyde trapping agent.
# [3] = test system: 3LLD122 Lewis lung carcinoma; test: Metastatic lung model (Lewis lung carcinoma); format: in vivo, mice
# Procedure: Metastatic lung model: Female C57/BL mice, 6-10 weeks (Harlan, Israel) were […] implanted (in the tail vein) with 5×10^5 3LLD122 cells. Treatment with a derivative of a chemotherapeutic agent according to the present embodiments, for five days per week, commenced 24 hours post cell implantation. After 21 days the animals were sacrificed and their lung lesions were scored under an illuminated magnifying glass.
# [4] = test system: HT-29 human colon carcinoma; test: Xenograft flank colon carcinoma model, HT29; format: in vivo; conditions: nude mice
# Procedure: Xenograft flank colon carcinoma models: Eight weeks old, male CD1 nude mice (Harlan, Israel) were inoculated sc in the flanks with 5×10^6 HT29 or LS1034 cells. When tumor volume reached 50-100 mm^3, treatment with derivatives of chemotherapeutic agents according to the present embodiments commenced and was given by gavage five times a week for the duration of the experiment at the specified doses. Tumor volume (determined by caliper) and body weights were measured twice weekly. Tumor volume was measured (mm) using the formula for an ellipsoid sphere: Length×Width^2/2=Volume (mm)^3 This commonly used formula was also used to calculate tumor weight, assuming unit density (1 mm^3=1 mg). Serum PSA or CEA: […] At the end of the experiment blood samples were drawn from the eyes of mice (anesthetized slightly by inhalation of ether) or from the hearts of sacrificed animals.
# [5] = test system: human colon carcinoma cells (LS1034); test: Xenograft flank colon carcinoma model, LS1034; format: in vivo; conditions: nude mice sc implanted with LS1034
# Procedure: Xenograft flank colon carcinoma models: Eight weeks old, male CD1 nude mice (Harlan, Israel) were inoculated sc in the flanks with 5×10^6 HT29 or LS1034 cells. When tumor volume reached 50-100 mm^3, treatment with derivatives of chemotherapeutic agents according to the present embodiments commenced and was given by gavage five times a week for the duration of the experiment at the specified doses. Tumor volume (determined by caliper) and body weights were measured twice weekly. Tumor volume was measured (mm) using the formula for an ellipsoid sphere: Length×Width^2/2=Volume (mm)^3
# Survival was estimated by the Kaplan-Meier curves, and the difference in survival between the groups was analyzed by Wilcoxon's test and using a log-rank test chi-square (JMP 5.0.1.2, Chicago, Ill.).
smiles,measurement,setting,value
"O=c1c(F)cn([C@H]2CCCO2)c(=O)n1CO [AN-436, 5-fluoro-1-((R)-tetrahydrofuran-2-yl)-3-(hydroxymethyl)pyrimidine-2,4(1H,3H)-dione]",IC90,HT-29; + SC 500 μM,303 ± 7 µM
same,IC90,HT-29; Homo sapiens,115 ± 7 µM
same,IC50,HT-29; Homo sapiens,67 ± 2 µM
same,IC50,"HT-29; Homo sapiens, + SC (semicarbazide) 500 μM",164 ± 12 µM
same,IC90,LS-1034; Homo sapiens,153 ± 16 µM
same,IC50,LS-1034; Homo sapiens,84 ± 8 µM
same,IC50,"LS-1034; Homo sapiens, + SC 500 μM",132 ± 7 µM
same,IC90,LS-1034; + SC 500 μM,252 ± 30 µM
same,IC90,"CT-26; CT-26, + SC 500 μM",296 ± 28 µM
same,IC50,"CT-26; Mus musculus, CT26, CT-26, + SC 500 μM",132 ± 26 µM
same,IC50,"CT-26; Mus musculus, CT26, CT-26",99 ± 5 µM
same,IC90,"CT-26; Mus musculus, CT26, CT-26",170 ± 9 µM
same,IC50,BXPC-3; + SC 500 μM,160 ± 17 µM
same,IC90,BXPC-3; + SC 500 μM,460 ± 78 µM
same,IC50,BXPC-3; Homo sapiens,81 ± 9 µM
same,IC90,BXPC-3; Homo sapiens,191 ± 47 µM
same,IC50,Panc 02,96 ± 9 µM
same,IC90,Panc 02,219 ± 25 µM
same,IC50,MES SA; + SC 500 μM,182 ± 18 µM
same,IC90,MES SA; + SC 500 μM,456 ± 189 µM
same,IC50,MES SA; Homo sapiens,71 ± 12 µM
same,IC90,MES SA; Homo sapiens,127 ± 19 µM
same,IC50,MES SA DXS; Homo sapiens,63 ± 4 µM
same,IC90,MES SA DXS; Homo sapiens,101 ± 2 µM
same,IC50,MES SA DXS; + SC 500 μM,203 ± 75 µM
same,IC90,MES SA DXS; + SC 500 μM,356 ± 144 µM
same,maximal cell killing achieved,[1],100%
same,"fold more potent than tegafur, based on IC50 values",[2],≥ 2.5 fold
same,reduction of cell killing by co-treatment with semicarbazide,various cell lines,up to 3.5 folds
same,antimetastatic activity (number of lung lesions),[3],significantly evident
same,CEA level in serum,[4],reduced the level significantly
same,tumor growth inhibition,[4]; P<<0.001,substantially inhibited tumor growth
same,inhibitory effect on tumor growth compared with tegafur,[4]; p<0.05,significantly higher than the parent compound
same,survival after 82 days,[5],75%
